According to patent US20230019491A1, “PYRIMIDINE TBK/IKKe INHIBITOR COMPOUNDS AND USES THEREOF” (Merck Patent GmbH, priority 2017, published 2023):
pIC50: −log10 of the molar value.

Legend:
IKKε = target: T1, IKKε (Homo sapiens, UniProt Q14164); experiment: IKKε biochemical assay; conditions: 10 point 1:4 dose response, 30 uM top concentration, 90 min at 25° C., LabChip EZ Reader II; read-out: IKKε_IC50
T1 sequence (Q14164 1-716): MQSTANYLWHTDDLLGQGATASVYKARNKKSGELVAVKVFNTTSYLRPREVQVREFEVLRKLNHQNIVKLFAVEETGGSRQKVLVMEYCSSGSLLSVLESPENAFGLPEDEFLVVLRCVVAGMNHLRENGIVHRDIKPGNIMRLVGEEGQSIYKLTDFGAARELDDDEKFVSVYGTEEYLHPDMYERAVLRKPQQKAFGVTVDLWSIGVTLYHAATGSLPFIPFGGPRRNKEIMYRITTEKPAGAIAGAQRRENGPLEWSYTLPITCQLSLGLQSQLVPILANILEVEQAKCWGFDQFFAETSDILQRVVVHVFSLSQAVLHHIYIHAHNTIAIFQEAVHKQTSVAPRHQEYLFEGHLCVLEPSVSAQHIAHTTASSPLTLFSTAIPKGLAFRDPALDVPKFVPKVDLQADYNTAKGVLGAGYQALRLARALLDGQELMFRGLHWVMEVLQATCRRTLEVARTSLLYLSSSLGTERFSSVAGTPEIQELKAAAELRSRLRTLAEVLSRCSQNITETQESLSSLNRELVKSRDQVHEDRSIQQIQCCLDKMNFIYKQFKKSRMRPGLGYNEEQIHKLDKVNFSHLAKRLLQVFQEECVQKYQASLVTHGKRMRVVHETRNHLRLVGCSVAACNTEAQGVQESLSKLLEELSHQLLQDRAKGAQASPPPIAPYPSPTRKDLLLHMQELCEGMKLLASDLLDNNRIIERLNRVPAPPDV
Outline: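 Mobility-shift LabChip read-out followed a 90 min, 25° C. reaction of IKKε with substrate and test compound, with DMSO held at 1% final. Reactions were ended with stop buffer. Wells with 10 uM final staurosporine defined complete inhibition, and DMSO-only wells the uninhibited level.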

TBK1 = target: T2, TBK1 (Homo sapiens, UniProt Q9UHD2); experiment: TBK biochemical assay; conditions: 10 point 1:4 dose response, 30 uM top concentration, 90 min at 25° C., LabChip EZ Reader II; read-out: TBK1_IC50
T2 sequence (Q9UHD2 1-729): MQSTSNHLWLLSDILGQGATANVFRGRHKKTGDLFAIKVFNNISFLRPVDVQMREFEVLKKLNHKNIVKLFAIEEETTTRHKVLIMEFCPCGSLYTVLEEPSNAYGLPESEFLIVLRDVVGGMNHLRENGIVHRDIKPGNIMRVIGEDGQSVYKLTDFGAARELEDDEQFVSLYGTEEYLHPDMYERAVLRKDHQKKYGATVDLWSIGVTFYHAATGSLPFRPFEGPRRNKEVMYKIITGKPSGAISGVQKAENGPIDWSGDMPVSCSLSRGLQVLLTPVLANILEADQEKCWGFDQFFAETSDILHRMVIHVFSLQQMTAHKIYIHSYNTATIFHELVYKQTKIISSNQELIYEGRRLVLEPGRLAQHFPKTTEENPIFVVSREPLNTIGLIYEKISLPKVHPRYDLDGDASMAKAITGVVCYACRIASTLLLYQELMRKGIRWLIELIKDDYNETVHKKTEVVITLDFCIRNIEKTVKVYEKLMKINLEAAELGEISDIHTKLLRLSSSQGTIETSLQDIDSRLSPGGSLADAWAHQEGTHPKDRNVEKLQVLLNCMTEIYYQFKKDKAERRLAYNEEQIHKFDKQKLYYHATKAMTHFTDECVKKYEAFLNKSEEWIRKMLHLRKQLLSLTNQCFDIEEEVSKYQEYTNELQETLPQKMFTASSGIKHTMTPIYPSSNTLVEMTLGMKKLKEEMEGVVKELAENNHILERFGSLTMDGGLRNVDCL
Outline: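 Read-out was a Caliper LabChip mobility-shift assay, run after a 90-min, 25 °C reaction of TBK1 with substrate and compounds, quenched with stop buffer. Control wells received staurosporine at 10 uM final.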

SMILES | pIC50 (IKKε) | pIC50 (TBK1)
COc1nc(Nc2nccc(-c3ccc(O[C@H]4CCN(C(=O)[C@H](C)O)C[C@@H]4F)c(C#N)c3)n2)ccc1N1CCN(C2COC2)CC1 [Example 196, 2-[(3S,4S)-3-Fluoro-1-((S)-2-hydroxy-propionyl)-piperidin-4-yloxy]-5-{2-[6-methoxy-5-(4-oxetan-3-yl-piperazin-1-yl)-pyridin-2-ylamino]-pyrimidin-4-yl}-benzonitrile] | > 7.00 | > 7.00
COc1nc(Nc2nccc(-c3ccc(O[C@H]4CCN(C(=O)[C@@H](O)CO)C[C@@H]4F)c(C#N)c3)n2)ccc1N1CCN(C2COC2)CC1 [Example 197, 2-[(3S,4S)-1-((S)-2,3-Dihydroxy-propionyl)-3-fluoro-piperidin-4-yloxy]-5-{2 [6-methoxy-5-(4-oxetan-3-yl-piperazin-1-yl)-pyridin-2-ylamino]-pyrimidin-4-yl}-benzonitrile] | > 7.00 | > 7.00
COc1nc(Nc2nccc(-c3ccc(O[C@H]4CCNC[C@H]4F)c(C#N)c3)n2)ccc1N1CCN(C2COC2)CC1 [Example 198, 2-[[(3R,4S)-3-fluoropiperidin-4-yl]oxy]-5-[2-([6-methoxy-5-[4-(oxetan-3-yl)piperazin-1-yl]pyridin-2-yl]amino)pyrimidin-4-yl]benzonitrile] | > 7.00 | > 7.00
COc1nc(Nc2nccc(-c3ccc(O[C@H]4CCN(C(=O)[C@H](C)O)C[C@H]4F)c(C#N)c3)n2)ccc1N1CCN(C2COC2)CC1 [Example 199, 2-[[(3R,4S)-3-fluoro-1-[(2S)-2-hydroxypropanoyl]piperidin-4-yl]oxy]-5-[2-([6-methoxy-5-[4-(oxetan-3-yl)piperazin-1-yl]pyridin-2-yl]amino)pyrimidin-4-yl]benzonitrile] | > 7.00 | > 7.00
COc1nc(Nc2nccc(-c3ccc(O[C@H]4CCN(C(=O)[C@H](C)O)C[C@H]4F)c(C#N)c3)n2)ccc1N1CCN(C)CC1 [Example 201, 2-[[(3R,4S)-3-fluoro-1-[(2S)-2-hydroxypropanoyl]piperidin-4-yl]oxy]-5-(2-[[6-methoxy-5-(4-methylpiperazin-1-yl)pyridin-2-yl]amino]pyrimidin-4-yl)benzonitrile] | > 7.00 | > 7.00
COc1nc(Nc2nccc(-c3ccc(O[C@@H]4CCN(C(=O)[C@H](C)O)C[C@H]4F)c(C#N)c3)n2)ccc1N1CCN(C2COC2)CC1 [Example 202, 2-[(3R,4R)-3-Fluoro-1-((S)-2-hydroxy-propionyl)-piperidin-4-yloxy]-5-{2-[6-methoxy-5-(4-oxetan-3-yl-piperazin-1-yl)-pyridin-2-ylamino]-pyrimidin-4-yl}-benzonitrile] | > 7.00 | > 7.00
Cc1nc(C(=O)N2CCC(Oc3ccc(-c4ccnc(Nc5ccc(N6CCN(C)CC6)cc5)n4)cc3C#N)CC2)n[nH]1 [Example 203, 2-[[1-(5-methyl-1H-1,2,4-triazole-3-carbonyl)piperidin-4-yl]oxy]-5-(2-[[4-(4-methylpiperazin-1-yl)phenyl]amino]pyrimidin-4-yl)benzonitrile] | > 7.00 | > 7.00
C[C@H](O)C(=O)N1CCC(Oc2ccc(-c3ccnc(Nc4cccnc4)n3)cc2C#N)C(F)(F)C1 (some centres unmarked) [Example 205] | > 7.00 | > 7.00
C[C@@H](O)C(=O)N1CCC(Oc2ccc(-c3ccnc(Nc4cccnc4)n3)cc2C#N)C(F)(F)C1 (stereo partly drawn) [Example 206, 2-([33-difluoro-1-[(2R)-2-hydroxypropanoyl]piperidin-4-yl]oxy)-5-[2-[(pyridin-3-yl)amino]pyrimidin-4-yl]benzonitrile] | > 7.00 | > 7.00
C[C@H](O)C(=O)N1CCC(Oc2ccc(-c3ccnc(Nc4ccncc4)n3)cc2C#N)C(F)(F)C1 (stereo partly drawn) [Example 207, 2-([3,3-difluoro-1-[(2S)-2-hydroxypropanoyl]piperidin-4-yl]oxy)-5-[2-[(pyridin-4-yl)amino]pyrimidin-4-yl]benzonitrile] | > 7.00 | > 7.00
C[C@@H](O)C(=O)N1CCC(Oc2ccc(-c3ccnc(Nc4ccncc4)n3)cc2C#N)C(F)(F)C1 (stereo partly drawn) [Example 208, 2-([3,3-difluoro-1-[(2R)-2-hydroxypropanoyl]piperidin-4-yl]oxy)-5-[2-[(pyridin-4-yl)amino]pyrimidin-4-yl]benzonitrile] | > 7.00 | > 7.00
C[C@H](O)C(=O)N1CCC(Oc2ccc(-c3ccnc(Nc4ccccc4)n3)cc2C#N)C(F)(F)C1 (stereo partly drawn) [Example 209, 2-[3,3-Difluoro-1-((S)-2-hydroxy-propionyl)-piperidin-4-yloxy]-5-(2-phenylamino-pyrimidin-4-yl)-benzonitrile] | > 7.00 | > 7.00
N#Cc1cc(-c2ccnc(Nc3ccccc3)n2)ccc1OC1CCN(C(=O)[C@@H](O)CO)CC1(F)F (stereo partly drawn) [Example 210, 2-[1-((S)-2,3-Dihydroxy-propionyl)-3,3-difluoro-piperidin-4-yloxy]-5-(2-phenylamino-pyrimidin-4-yl)-benzonitrile] | > 7.00 | > 7.00
COc1ccc(Nc2nccc(-c3ccc(OC4CCN(C(=O)[C@H](C)O)CC4(F)F)c(C#N)c3)n2)nc1OC (stereo partly drawn) [Example 211, 2-[3,3-Difluoro-1-((S)-2-hydroxy-propionyl)-piperidin-4-yloxy]-5-[2-(5,6-dimethoxy-pyridin-2-ylamino)-pyrimidin-4-yl]-benzonitrile] | > 7.00 | > 7.00
C[C@H](O)C(=O)N1CCC(Oc2ccc(-c3ccnc(Nc4ccc(C5CCN(C6COC6)CC5)cc4)n3)cc2C#N)C(F)(F)C1 (stereo partly drawn) [Example 212, 2-([3,3-difluoro-1-[(2S)-2-hydroxypropanoyl]piperidin-4-yl]oxy)-5-[2-([4-[1-(oxetan-3-yl)piperidin-4-yl]phenyl]amino)pyrimidin-4-yl]benzonitrile] | > 7.00 | > 7.00
C[C@H](O)C(=O)N1CCC(Oc2ccc(-c3ccnc(Nc4ccc(C5CCN(C6COC6)C5)cc4)n3)cc2C#N)C(F)(F)C1 (stereo partly drawn) [Example 213, 2-([3,3-difluoro-1-[(2S)-2-hydroxypropanoyl]piperidin-4-yl]oxy)-5-[2-([4-[1-(oxetan-3-yl)pyrrolidin-3-yl]phenyl]amino)pyrimidin-4-yl]benzonitrile] | > 7.00 | > 7.00
C[C@@H](O)C(=O)N1CCC(Oc2ccc(-c3ccnc(Nc4ccc(C5CCN(C6COC6)C5)cc4)n3)cc2C#N)C(F)(F)C1 (stereo partly drawn) [Example 214, 2-([3,3-difluoro-1-[(2R)-2-hydroxypropanoyl]piperidin-4-yl]oxy)-5-[2-([4-[1-(oxetan-3-yl)pyrrolidin-3-yl]phenyl]amino)pyrimidin-4-yl]benzonitrile] | > 7.00 | > 7.00
C[C@@H](O)C(=O)N1CCC(Oc2ccc(-c3ccnc(Nc4ccc(N5CCOCC5)cc4)n3)cc2C#N)C(F)(F)C1 (stereo partly drawn) [Example 215, 2-([3,3-difluoro-1-[(2R)-2-hydroxypropanoyl]piperidin-4-yl]oxy)-5-(2-[[4-(morpholin-4-yl)phenyl]amino]pyrimidin-4-yl)benzonitrile] | > 7.00 | > 7.00
C[C@H](O)C(=O)N1CCC(Oc2ccc(-c3ccnc(Nc4ccc(N5CCOCC5)cc4)n3)cc2C#N)C(F)(F)C1 (stereo partly drawn) [Example 216, 2-([3,3-difluoro-1-[(2S)-2-hydroxypropanoyl]piperidin-4-yl]oxy)-5-(2-[[4-(morpholin-4-yl)phenyl]amino]pyrimidin-4-yl)benzonitrile] | > 7.00 | > 7.00
